Reference: patent US10906894B2, “Compounds containing benzo[d][1,3]oxathiole, benzo[d][1,3]oxathiole 3-oxide or benzo[d][1,3]oxathiole 3,3-dioxide and methods/uses thereof as agonists of g protein-coupled receptor 119” (PRAMANA PHARMACEUTICALS INC., priority 2016, dated 2021)

Tests used:
GPR119 [1] = target: T1, GPR119 (Homo sapiens, UniProt Q8TDV5); assay: LANCE Ultra cAMP assay: stimulation of GPR119-mediated cAMP production in CHO cells stably expressing human GPR119 receptor; assay type: cell-based; conditions: for Emax: CHO
T1 sequence (Q8TDV5 1-335): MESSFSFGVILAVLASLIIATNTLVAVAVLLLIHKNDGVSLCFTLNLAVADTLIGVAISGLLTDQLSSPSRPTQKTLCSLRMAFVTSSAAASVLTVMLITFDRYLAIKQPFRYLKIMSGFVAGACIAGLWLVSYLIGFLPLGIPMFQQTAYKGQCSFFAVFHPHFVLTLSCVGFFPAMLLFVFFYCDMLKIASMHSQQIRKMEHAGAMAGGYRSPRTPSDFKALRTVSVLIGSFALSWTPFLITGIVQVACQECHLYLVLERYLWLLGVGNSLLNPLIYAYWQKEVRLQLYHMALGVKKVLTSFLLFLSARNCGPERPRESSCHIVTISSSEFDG
Method: The potency of GPR119 receptor agonists was assessed by measuring the stimulation of GPR119-mediated cAMP production with LANCE Ultra cAMP assay (Perkin Elmer, TRF0264) in CHO cells stably expressing human GPR119 receptor (Chantest, cat. #A633). CHO-GPR119 cells were cultured in DMEM/F12 medium supplemented with 10% FBS and 1% NEAA at 37° C., 5% CO2, aliquoted and frozen in liquid nitrogen.
(§1) For assay, cells were thawed in a water bath at 37° C., washed in Hank's Balanced Salt Solution (HBSS) and resuspended in Stimulation Buffer 1 (SB1) for 30 min: 5 mM HEPES, pH 7.2-7.4, 0.1% BSA in HBSS. […] The ULight-anti-cAMP antibody (Perkin Elmer, TRF0264) was added to the cell suspension making Mix [Cell suspension/4× ULight-anti-cAMP antibodies]. […] The assay plate was centrifuged 200 g, 5 sec.
Serial dilution (100×) of tested compounds were prepared in DMSO in the range of from 30 nM to 1 mM with half-log step in 384-well plates (Greiner, 781280) using Biomek 2000. 10 test concentrations in two repeats were prepared for each CRC. […] The assay plate was incubated 30 minutes at room temperature on a shaker, 250 rpm to allow GPR119 receptor stimulation. The cAMP level was determined according to the standard kit supplier protocol (PerkinElmer, cat. #TRF0264).
(§2) The stock solution of the Eu-cAMP tracer (Perkin Elmer, TRF0264) was diluted 1:100 in cAMP Detection Buffer (Perkin Elmer, TRF0264), making 2× working concentration and added to the assay plate, 10 μL per well. Assay plate was centrifuged 180 g, 1 sec. Then the assay plate was incubated for 60′ at room temperature on shaker, 250 rpm to allow cAMP detection. The TR-FRET signal was measured at Ex-340 nm/Em-615 and Ex-340 nm/Em-665 nm on the reader Tecan M1000. 0% of cAMP stimulation corresponds to the cells with DMSO only, 100% of cAMP stimulation corresponds to the cells with 10 uM Forskolin. The EC50 value defined as the concentration of the drug that gives half-maximal response, were calculated using GraphPad Prizm 5.0 software with forskolin was used as references at each test. Entries 1-17 in Table A-2 show the biological activity of certain representative compounds using the protocol as described above.
as §1, with “cell suspension,” for “cell suspension”
as §2, with “1-14” for “1-17”, “B-2” for “A-2”

GPR119 [2] = target: T1, GPR119; assay: PathHunter β-arrestin assay (enzyme fragment complementation, β-galactosidase reporter) monitoring activation of GPR119; assay type: cell-based; design: β-galactosidase enzyme fragment for EFC (by own knowledge the ProLink tag, fused to the receptor's C-terminus in PathHunter lines); conditions: for EC50: Table B-3; for Emax: Table B-3, read-out: % cAMP Max.
Method: Certain test compounds were evaluated using the PathHunterR β-arrestin assay, which monitors the activation of GPR119 in a homogenous, non-imaging assay format using the enzyme fragment complementation (EFC) technology (DiscoverX Corporation, Fremont, Calif. U.S.A.; www.discoverx.com) with β-galactosidase as the functional reporter.

[3] = Table B-2 entries 15-39, modified protocol, 500 cells/well, read-out: % cAMP Max.
[4] = Table B-2 entries 15-39, modified protocol, 500 cells/well
[5] = Table B-2 entries 1-14, protocol as described (800 000 cells/mL, 5 uL/well), CHO-GPR119 cells
[6] = Table A-2 entries 1-17, protocol as described, 100% = 10 uM Forskolin, read-out: % cAMP Max. relative to forscolin
[7] = Table A-2 entries 1-17, protocol as described (800 000 cells/mL, 5 uL/well), CHO-GPR119 cells

Row | Emax (GPR119 [1]; [3]) | EC50 (GPR119 [1]; [4]) | EC50 (GPR119 [2]) | Emax (GPR119 [2]) | EC50 (GPR119 [1]; [5]) | Emax (GPR119 [1]; [6]) | EC50 (GPR119 [1]; [7]) | Compound
1 | 93% | 10.3 nM | 222 nM | 155% |  |  |  | CCc1cnc(N2CC[C@H](COc3ccc(-c4ccc5c(c4)OC[S@@+]5[O-])cc3)C2)nc1 [Example B-91, (S)-6-(4-(((S)-1-(5-Ethylpyrimidin-2-yl)pyrrolidine-3-yl)methoxy)phenyl)-2H-benzo[d][1,3]oxathiole 3-oxide]
2 | 88% | 17.7 nM | 60 nM | 190% |  |  |  | CCc1cnc(N2CC[C@H](COc3ccc(-c4ccc5c(c4)OC[S@@+]5[O-])cc3F)C2)nc1 [Example B-75, (S)-6-(4-(((S)-1-(5-Ethylpyrimidin-2-yl)pyrrolidin-3-yl)methoxy)-3-fluorophenyl)-2H-benzo[d][1,3]oxathiole 3-oxide]
3 | 93% | 4.6 nM | 108 nM | 133% |  |  |  | [O-][S@@+]1COc2cc(-c3ccc(OC[C@H]4CCN(c5ncc(Cl)cn5)C4)c(F)c3)ccc21 [Example B-86, (R)-6-(4-(((S)-1-(5-Chloropyrimidin-2-yl)pyrrolidine-3-yl)methoxy)-3-fluorophenyl)-2H-benzo[d][1,3]oxathiole 3-oxide]
4 | 70% | 1.7 nM | 6.7 nM | 175% |  |  |  | [O-][S@+]1COc2cc(-c3ccc(OCC4CCN(c5ncc(Cl)cn5)CC4)c(F)c3)ccc21 [Example B-59, (S)-6-(4-((1-(5-Chloropyrimidin-2-yl)piperidin-4-yl)methoxy)-3-fluorophenyl)-2H-benzo[d][1,3]oxathiole 3-oxide]
5 | 66% | 3.7 nM | 16.4 nM | 169% |  |  |  | COc1cnc(N2CCC(COc3ccc(-c4ccc5c(c4)OC[S@@+]5[O-])cc3F)CC2)nc1 [Example B-50, (S)-6-(3-Fluoro-4-((1-(5-methoxypyrimidin-2-yl)piperidin-4-yl)methoxy)phenyl)-2H-benzo[d][1,3]oxathiole 3-oxide]
6 | 64% | 13 nM | 657 nM | 73% |  |  |  | CCc1ccnc(N2CC[C@H](COc3ccc(-c4ccc5c(c4)OC[S@+]5[O-])cc3F)C2)n1 [Example B-85, (R)-6-(4-(((S)-1-(4-Ethylpyrimidin-2-yl)pyrrolidine-3-yl)methoxy)-3-fluorophenyl)-2H-benzo[d][1,3]oxathiole 3-oxide]
7 | 92% | 31.5 nM | 567 nM | 117% |  |  |  | CCc1ccnc(N2CC[C@H](COc3ccc(-c4ccc5c(c4)OC[S@@+]5[O-])cc3F)C2)n1 [Example B-84, (S)-6-(4-(((S)-1-(4-Ethylpyrimidin-2-yl)pyrrolidine-3-yl)methoxy)-3-fluorophenyl)-2H-benzo[d][1,3]oxathiole 3-oxide]
8 |  |  | 35.7 nM | 172% | 0.9 nM |  |  | [O-][S@@+]1COc2cc(-c3ccc(OCC4CCN(c5ncc(Cl)cn5)CC4)c(F)c3)ccc21 [Example B-34, (R)-6-(4-((1-(5-chloropyrimidin-2-yl)piperidin-4-yl)methoxy)-3-fluorophenyl)-2H-benzo[d][1,3]oxathiole-3-oxide]
9 |  |  |  |  | > 500 nM |  |  | [O-][S+]1COc2cc(-c3ccc(OCC4CCNCC4)c(F)c3)ccc21 (centres unmarked) [Example B-18]
10 | 82% | 10.1 nM | 7.9 nM | 164% |  |  |  | CC(C)c1cnc(N2CCC(COc3ccc(-c4ccc5c(c4)OC[S@@+]5[O-])cc3F)CC2)nc1 [Example B-46, (S)-6-(3-fluoro-4-((1-(5-isopropylpyrimidin-2-yl)piperidin-4-yl)methoxy)phenyl)-2H-benzo[d][1,3]oxathiole 3-oxide]
11 |  |  |  |  |  | 75% | 102 nM | O=S1(=O)COc2cc(-c3ccc(OCC4CCN(c5ncncn5)CC4)c(F)c3)ccc21 [A-42, 6-(4-((1-(1,3,5-Triazin-2-yl)piperidin-4-yl)methoxy)-3-fluorophenyl)-2H-benzo[d][1,3]oxathiole 3,3-dioxide]
12 |  |  |  |  |  | 77% | 86.4 nM | CN(C)C(=O)N1CCC(COc2ccc(-c3ccc4c(c3)OCS4(=O)=O)cc2F)CC1 [A-14]
13 |  |  |  |  | > 500 nM |  |  | CCc1ccnc(N2CCC(COc3ccc(-c4ccc5c(c4)OCS5)cc3F)CC2)n1 [Example B-26]
